Assay results reported in PMC12858467, “In vitro toxicokinetics and metabolic profiling of methoxycathinones and methylthiocathinones using human liver systems and hyphenated mass spectrometry” (Archives of Toxicology, 2025).

Tests used:
Assay type in all cases: in vitro ADME
Conditions in all cases: 30 min, 37 °C
[1] = target: T1, CYP2D6 (Homo sapiens, UniProt P10635); test: Monooxygenases activity screening, CYP2D6; design: key to one-step metabolite detected in CYP2D6 incubation: +, detected; -, not detected
T1 construct: purchased Discovery Life Sciences (Huntsville, LA, USA); host or cells: baculovirus-infected insect cells (microsomes, Supersomes)
Protocol: (§1) For incubations with CYP2A6 or CYP2C9, phosphate buffer was replaced with 90 mM Tris buffer, according to the manufacturer’s guideline. […] All incubations were done in duplicate and concentrations were fixed. Verapamil (25 µM) was incubated as a positive control.

[2] = target: T2, CYP2E1 (Homo sapiens, UniProt P05181); test: Monooxygenases activity screening, CYP2E1; design: key: +, detected; -, not detected
T2 construct: purchased Discovery Life Sciences (Huntsville, LA, USA); host or cells: baculovirus-infected insect cells (microsomes, Supersomes)
Protocol: as §1

[3] = target: T3, CYP2C8 (Homo sapiens, UniProt P10632); test: Monooxygenases activity screening, CYP2C8; design: key: +, detected; -, not detected
T3 construct: purchased Discovery Life Sciences (Huntsville, LA, USA); host or cells: baculovirus-infected insect cells (microsomes, Supersomes)
T3 sequence (P10632 1-490): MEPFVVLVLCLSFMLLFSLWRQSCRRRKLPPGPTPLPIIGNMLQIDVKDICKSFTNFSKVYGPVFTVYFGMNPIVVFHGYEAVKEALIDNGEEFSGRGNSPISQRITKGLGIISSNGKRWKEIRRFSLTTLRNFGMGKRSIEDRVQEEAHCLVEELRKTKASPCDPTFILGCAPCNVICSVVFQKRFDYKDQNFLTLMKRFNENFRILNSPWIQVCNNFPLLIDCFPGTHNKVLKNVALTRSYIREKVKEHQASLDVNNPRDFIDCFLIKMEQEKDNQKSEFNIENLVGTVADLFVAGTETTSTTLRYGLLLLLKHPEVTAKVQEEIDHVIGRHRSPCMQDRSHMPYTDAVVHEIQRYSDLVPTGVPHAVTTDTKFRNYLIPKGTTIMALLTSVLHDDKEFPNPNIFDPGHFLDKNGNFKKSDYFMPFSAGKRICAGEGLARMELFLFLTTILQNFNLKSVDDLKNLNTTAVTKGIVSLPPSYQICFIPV
Protocol: as §1

[4] = target: T4, flavin-containing monooxygenase 3 (FMO3) (Homo sapiens, UniProt P31513); test: Monooxygenases activity screening, FMO3; design: key: +, detected; -, not detected
T4 construct: purchased Discovery Life Sciences (Huntsville, LA, USA); host or cells: baculovirus-infected insect cells (microsomes, Supersomes)
T4 sequence (P31513 1-532): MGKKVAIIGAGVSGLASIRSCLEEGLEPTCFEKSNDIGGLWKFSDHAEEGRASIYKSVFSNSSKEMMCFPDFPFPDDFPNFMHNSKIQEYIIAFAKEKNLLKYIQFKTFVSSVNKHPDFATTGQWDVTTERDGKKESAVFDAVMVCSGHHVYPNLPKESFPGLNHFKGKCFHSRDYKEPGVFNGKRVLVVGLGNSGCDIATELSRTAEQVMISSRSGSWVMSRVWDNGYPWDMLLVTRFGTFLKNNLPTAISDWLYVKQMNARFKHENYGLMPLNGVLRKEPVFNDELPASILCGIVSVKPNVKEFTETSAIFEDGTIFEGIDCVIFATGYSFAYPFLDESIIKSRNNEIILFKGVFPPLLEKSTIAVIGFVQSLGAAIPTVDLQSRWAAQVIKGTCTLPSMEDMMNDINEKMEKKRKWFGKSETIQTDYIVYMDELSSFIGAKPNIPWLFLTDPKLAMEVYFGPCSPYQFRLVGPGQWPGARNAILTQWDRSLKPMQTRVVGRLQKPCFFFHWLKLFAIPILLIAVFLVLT
Protocol: as §1

[5] = target: T5, CYP3A5 (Homo sapiens, UniProt P20815); test: Monooxygenases activity screening, CYP3A5; design: key: +, detected; -, not detected
T5 construct: purchased Discovery Life Sciences (Huntsville, LA, USA); host or cells: baculovirus-infected insect cells (microsomes, Supersomes)
Protocol: as §1

[6] = target: T6, CYP2B6 (Homo sapiens, UniProt P20813); test: Monooxygenases activity screening, CYP2B6; design: key: +, detected; -, not detected
T6 construct: purchased Discovery Life Sciences (Huntsville, LA, USA); host or cells: baculovirus-infected insect cells (microsomes, Supersomes)
T6 sequence (P20813 1-491): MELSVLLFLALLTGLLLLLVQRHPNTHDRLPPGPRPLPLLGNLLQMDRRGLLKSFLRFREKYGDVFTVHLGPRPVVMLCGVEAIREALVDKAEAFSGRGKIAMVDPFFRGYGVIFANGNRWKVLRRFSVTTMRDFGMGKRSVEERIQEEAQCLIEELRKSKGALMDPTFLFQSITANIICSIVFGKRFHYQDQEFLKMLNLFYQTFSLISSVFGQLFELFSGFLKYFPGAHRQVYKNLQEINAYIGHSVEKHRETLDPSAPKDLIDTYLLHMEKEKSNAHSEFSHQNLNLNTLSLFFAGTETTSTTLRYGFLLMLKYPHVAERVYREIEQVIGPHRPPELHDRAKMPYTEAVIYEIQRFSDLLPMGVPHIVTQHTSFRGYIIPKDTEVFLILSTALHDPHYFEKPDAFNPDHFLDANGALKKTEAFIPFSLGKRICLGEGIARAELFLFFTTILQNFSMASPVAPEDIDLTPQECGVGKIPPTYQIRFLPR
Protocol: as §1

[7] = target: T7, CYP2A6 (Homo sapiens, UniProt P11509); test: Monooxygenases activity screening, CYP2A6; design: key: +, detected; -, not detected
T7 construct: purchased Discovery Life Sciences (Huntsville, LA, USA); host or cells: baculovirus-infected insect cells (microsomes, Supersomes)
T7 sequence (P11509 1-494): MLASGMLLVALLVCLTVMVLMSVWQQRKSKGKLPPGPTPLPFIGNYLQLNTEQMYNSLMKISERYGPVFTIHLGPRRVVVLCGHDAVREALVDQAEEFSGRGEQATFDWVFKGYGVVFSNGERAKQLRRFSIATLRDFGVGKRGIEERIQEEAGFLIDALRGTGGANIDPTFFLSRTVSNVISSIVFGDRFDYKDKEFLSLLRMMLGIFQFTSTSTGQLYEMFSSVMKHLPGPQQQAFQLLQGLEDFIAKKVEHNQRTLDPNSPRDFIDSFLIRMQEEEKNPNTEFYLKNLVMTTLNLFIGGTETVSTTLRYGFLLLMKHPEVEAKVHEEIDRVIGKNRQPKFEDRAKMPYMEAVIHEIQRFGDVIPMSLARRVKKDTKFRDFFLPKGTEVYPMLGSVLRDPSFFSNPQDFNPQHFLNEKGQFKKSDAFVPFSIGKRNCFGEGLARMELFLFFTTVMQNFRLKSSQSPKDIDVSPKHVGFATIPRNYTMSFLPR
Protocol: as §1

[8] = target: T8, CYP2C19 (Homo sapiens, UniProt P33261); test: Monooxygenases activity screening, CYP2C19; design: key: +, detected; -, not detected
T8 construct: purchased Discovery Life Sciences (Huntsville, LA, USA); host or cells: baculovirus-infected insect cells (microsomes, Supersomes)
Protocol: as §1

[9] = target: T9, CYP3A4 (Homo sapiens, UniProt P08684); test: Monooxygenases activity screening, CYP3A4; design: key: +, detected; -, not detected
T9 construct: purchased Discovery Life Sciences (Huntsville, LA, USA); host or cells: baculovirus-infected insect cells (microsomes, Supersomes)
Protocol: as §1

[10] = target: T10, CYP1A2 (Homo sapiens, UniProt P05177); test: Monooxygenases activity screening, CYP1A2; design: key: +, detected; -, not detected
T10 construct: purchased Discovery Life Sciences (Huntsville, LA, USA); host or cells: baculovirus-infected insect cells (microsomes, Supersomes)
T10 sequence (P05177 1-516): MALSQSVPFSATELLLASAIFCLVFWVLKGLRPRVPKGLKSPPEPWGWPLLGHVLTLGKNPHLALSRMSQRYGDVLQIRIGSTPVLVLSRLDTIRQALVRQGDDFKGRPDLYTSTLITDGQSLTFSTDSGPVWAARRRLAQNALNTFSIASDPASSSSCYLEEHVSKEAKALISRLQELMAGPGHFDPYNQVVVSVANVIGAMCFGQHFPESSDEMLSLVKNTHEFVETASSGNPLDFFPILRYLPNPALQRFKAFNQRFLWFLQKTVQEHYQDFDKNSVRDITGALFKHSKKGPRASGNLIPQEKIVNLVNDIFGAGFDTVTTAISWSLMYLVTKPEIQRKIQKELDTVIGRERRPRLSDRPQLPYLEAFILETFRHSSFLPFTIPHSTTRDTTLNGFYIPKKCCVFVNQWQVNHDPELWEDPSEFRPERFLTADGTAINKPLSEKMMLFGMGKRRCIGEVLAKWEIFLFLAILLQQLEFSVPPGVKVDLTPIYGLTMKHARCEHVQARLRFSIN
Protocol: as §1

[11] = target: T11, CYP2C9 (Homo sapiens, UniProt P11712); test: Monooxygenases activity screening, CYP2C9; design: key: +, detected; -, not detected
T11 construct: purchased Discovery Life Sciences (Huntsville, LA, USA); host or cells: baculovirus-infected insect cells (microsomes, Supersomes)
Protocol: as §1

[12] = substrate 4MeS-NE-BP 25 µM, Table S3.4
[13] = substrate 4MeS-αP-BP 25 µM, Table S3.5
[14] = substrate 4MeS-αMor-PrP 25 µM, Table S3.6

T11 sequence (P11712 whole entry): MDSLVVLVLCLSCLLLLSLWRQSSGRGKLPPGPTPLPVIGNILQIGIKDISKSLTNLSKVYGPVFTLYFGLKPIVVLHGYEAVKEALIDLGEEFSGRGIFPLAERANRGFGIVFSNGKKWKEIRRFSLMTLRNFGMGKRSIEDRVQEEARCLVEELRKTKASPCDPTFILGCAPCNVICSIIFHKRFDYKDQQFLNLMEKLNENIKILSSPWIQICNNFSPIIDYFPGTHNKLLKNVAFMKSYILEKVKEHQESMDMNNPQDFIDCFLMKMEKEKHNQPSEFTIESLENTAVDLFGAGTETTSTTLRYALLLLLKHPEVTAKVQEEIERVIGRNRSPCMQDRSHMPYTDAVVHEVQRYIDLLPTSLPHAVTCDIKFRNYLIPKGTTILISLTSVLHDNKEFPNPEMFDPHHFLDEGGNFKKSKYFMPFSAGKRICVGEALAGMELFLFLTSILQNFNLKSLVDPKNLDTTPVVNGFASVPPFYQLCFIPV
T8 sequence (P33261 whole entry): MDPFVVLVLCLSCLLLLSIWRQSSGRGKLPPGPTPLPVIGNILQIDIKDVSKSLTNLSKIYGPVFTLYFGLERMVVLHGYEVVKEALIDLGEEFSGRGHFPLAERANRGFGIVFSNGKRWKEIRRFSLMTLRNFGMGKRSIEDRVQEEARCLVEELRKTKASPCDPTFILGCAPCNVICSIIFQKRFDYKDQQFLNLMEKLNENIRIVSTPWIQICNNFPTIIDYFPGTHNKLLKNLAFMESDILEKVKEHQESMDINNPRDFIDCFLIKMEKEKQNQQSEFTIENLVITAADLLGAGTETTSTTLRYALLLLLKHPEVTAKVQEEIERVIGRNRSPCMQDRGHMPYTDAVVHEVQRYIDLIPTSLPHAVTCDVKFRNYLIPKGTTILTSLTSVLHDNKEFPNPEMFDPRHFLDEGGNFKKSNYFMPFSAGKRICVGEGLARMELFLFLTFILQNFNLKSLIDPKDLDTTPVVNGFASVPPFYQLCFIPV
T1 sequence (P10635 whole entry): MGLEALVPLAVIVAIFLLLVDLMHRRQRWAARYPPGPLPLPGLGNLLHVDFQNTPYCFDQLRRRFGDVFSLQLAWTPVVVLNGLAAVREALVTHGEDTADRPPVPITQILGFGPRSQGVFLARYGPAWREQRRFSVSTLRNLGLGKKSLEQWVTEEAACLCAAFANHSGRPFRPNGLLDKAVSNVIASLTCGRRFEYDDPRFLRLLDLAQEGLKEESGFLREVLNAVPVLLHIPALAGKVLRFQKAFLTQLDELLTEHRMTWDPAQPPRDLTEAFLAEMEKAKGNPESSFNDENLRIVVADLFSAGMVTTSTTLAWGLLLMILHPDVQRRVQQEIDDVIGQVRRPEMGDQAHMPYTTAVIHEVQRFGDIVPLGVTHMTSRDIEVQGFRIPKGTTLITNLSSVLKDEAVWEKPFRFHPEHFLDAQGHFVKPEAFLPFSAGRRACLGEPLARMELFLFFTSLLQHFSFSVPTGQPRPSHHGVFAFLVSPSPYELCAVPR
T9 sequence (P08684 whole entry): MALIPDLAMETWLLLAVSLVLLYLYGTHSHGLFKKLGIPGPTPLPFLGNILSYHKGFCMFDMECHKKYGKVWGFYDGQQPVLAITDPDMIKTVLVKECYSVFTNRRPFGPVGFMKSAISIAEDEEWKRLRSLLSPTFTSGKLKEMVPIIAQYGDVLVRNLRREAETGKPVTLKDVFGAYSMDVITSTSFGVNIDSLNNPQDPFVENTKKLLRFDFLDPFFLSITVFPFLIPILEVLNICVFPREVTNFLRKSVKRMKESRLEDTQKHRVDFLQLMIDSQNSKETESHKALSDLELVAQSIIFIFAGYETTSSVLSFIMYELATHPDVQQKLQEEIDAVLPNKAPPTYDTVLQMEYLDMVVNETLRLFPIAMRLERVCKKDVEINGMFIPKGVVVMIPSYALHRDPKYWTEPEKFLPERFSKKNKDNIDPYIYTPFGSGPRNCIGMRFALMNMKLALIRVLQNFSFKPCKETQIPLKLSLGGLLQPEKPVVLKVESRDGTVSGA
T2 sequence (P05181 whole entry): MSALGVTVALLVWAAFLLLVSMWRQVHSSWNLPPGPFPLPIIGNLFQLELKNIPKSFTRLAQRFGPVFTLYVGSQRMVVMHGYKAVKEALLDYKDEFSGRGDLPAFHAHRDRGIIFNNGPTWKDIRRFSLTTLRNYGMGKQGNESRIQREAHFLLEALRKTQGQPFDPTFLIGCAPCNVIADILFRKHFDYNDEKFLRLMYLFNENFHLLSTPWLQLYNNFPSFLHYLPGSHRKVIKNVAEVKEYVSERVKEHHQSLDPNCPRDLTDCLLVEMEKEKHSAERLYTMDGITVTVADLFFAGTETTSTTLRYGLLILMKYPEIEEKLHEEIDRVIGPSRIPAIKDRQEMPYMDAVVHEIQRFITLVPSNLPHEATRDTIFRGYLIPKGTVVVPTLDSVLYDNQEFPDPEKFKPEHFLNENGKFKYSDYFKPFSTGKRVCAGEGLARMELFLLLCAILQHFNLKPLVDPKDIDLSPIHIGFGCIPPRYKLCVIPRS
T5 sequence (P20815 whole entry): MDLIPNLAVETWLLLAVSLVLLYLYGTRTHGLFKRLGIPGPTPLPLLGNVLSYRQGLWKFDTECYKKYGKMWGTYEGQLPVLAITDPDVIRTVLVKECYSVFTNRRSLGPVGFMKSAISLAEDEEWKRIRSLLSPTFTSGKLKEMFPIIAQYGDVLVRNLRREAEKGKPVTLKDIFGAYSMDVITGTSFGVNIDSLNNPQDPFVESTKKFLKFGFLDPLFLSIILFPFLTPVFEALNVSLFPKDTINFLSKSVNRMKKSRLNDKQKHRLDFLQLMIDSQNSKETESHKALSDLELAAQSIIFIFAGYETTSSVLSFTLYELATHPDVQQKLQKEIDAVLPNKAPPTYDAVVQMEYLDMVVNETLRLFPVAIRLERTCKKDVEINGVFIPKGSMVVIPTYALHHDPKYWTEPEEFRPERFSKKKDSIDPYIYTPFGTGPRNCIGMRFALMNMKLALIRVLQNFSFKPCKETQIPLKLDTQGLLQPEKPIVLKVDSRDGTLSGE

SMILES	one-step metabolite detected in CYP2D6 incubation [1, 12]	one-step metabolite detected in CYP2E1 incubation [2, 12]	one-step metabolite detected in CYP2C8 incubation [3, 12]	one-step metabolite detected in FMO3 incubation [4, 12]	one-step metabolite detected in CYP3A5 incubation [5, 12]	one-step metabolite detected in CYP2B6 incubation [6, 12]	one-step metabolite detected in CYP2A6 incubation [7, 12]	one-step metabolite detected in CYP2C19 incubation [8, 12]	one-step metabolite detected in CYP3A4 incubation [9, 12]	one-step metabolite detected in CYP1A2 incubation [10, 12]	one-step metabolite detected in CYP2C9 incubation [11, 12]	one-step metabolite detected in CYP2D6 incubation [1, 14]	one-step metabolite detected in CYP2E1 incubation [2, 14]	one-step metabolite detected in CYP2C8 incubation [3, 14]	one-step metabolite detected in FMO3 incubation [4, 14]	one-step metabolite detected in CYP3A5 incubation [5, 14]	one-step metabolite detected in CYP2B6 incubation [6, 14]	one-step metabolite detected in CYP2A6 incubation [7, 14]	one-step metabolite detected in CYP2C19 incubation [8, 14]	one-step metabolite detected in CYP3A4 incubation [9, 14]	also measured
CCNC(CC)C(=O)c1ccc(S)cc1 (stereo not shown) [MT1.1]	+	-	-	-	-	-	-	-	-	-	-										
CCC(N)C(=O)c1ccc(SC)cc1 (stereo not shown) [MT1.3]	+	-	+	-	+	+	-	+	+	+	-										
CCC(C(=O)c1ccc(S)cc1)N1CCCC1 (stereo not shown) [MT2.1]																					one-step metabolite detected in CYP2D6 incubation [1, 13]: +; one-step metabolite detected in CYP2E1 incubation [2, 13]: -; one-step metabolite detected in CYP2C8 incubation [3, 13]: -; one-step metabolite detected in FMO3 incubation [4, 13]: -; one-step metabolite detected in CYP3A5 incubation [5, 13]: -; one-step metabolite detected in CYP2B6 incubation [6, 13]: -; one-step metabolite detected in CYP2A6 incubation [7, 13]: -; one-step metabolite detected in CYP2C19 incubation [8, 13]: -; one-step metabolite detected in CYP3A4 incubation [9, 13]: -; one-step metabolite detected in CYP1A2 incubation [10, 13]: -; one-step metabolite detected in CYP2C9 incubation [11, 13]: -
CC(C(=O)c1ccc(S)cc1)N1CCOCC1 (stereo not shown) [MT3.1]												+	-	+	-	+	+	-	+	+	one-step metabolite detected in CYP1A2 incubation [10, 14]: +; one-step metabolite detected in CYP2C9 incubation [11, 14]: -
CSc1ccc(C(=O)C(C)[N+]2([O-])CCOCC2)cc1 (stereo not shown) [MT3.3]												-	-	-	+	-	-	+	-	-	one-step metabolite detected in CYP1A2 incubation [10, 14]: -; one-step metabolite detected in CYP2C9 incubation [11, 14]: -
